# Experimental data as given in patent US11759442B2, “Use of short chain fatty acids for the treatment and prevention of diseases and disorders” (Temple University-Of The Commonwealth System of Higher …, priority 2017, dated 2023).
# pEC50: −log10 of the molar value.
# Key:
# GPR-109a receptor = GPR-109a receptor (Homo sapiens, UniProt Q8TDS4); conditions: read-out: EC50 of GPR-109a receptor activation; cited from earlier work
# IL-6 = conditions: cited from earlier work
# [1] = tested on: ileum inflammatory cytokines; conditions: neonatal piglets, oral ~10 ml of 150 mmol/L; cited from earlier work
# Chain of GPR-109a receptor (Q8TDS4 whole entry): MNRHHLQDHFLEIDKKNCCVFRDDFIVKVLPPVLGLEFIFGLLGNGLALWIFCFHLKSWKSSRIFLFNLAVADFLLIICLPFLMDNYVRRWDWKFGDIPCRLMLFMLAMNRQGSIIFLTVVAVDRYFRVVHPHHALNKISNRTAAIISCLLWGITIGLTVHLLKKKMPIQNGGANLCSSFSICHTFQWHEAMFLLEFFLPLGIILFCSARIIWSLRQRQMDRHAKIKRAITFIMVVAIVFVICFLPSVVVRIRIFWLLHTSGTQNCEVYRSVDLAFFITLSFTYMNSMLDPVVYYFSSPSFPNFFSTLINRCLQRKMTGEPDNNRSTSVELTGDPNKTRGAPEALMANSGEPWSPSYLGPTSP
compound,measurement,setting,value
CCCC(=O)O [butyrate],re-emergence of psoriasis on left elbow after ceasing the regimen,"psoriasis skin lesions; FIG. 2 patient, one 600 mg pill 3 times daily for 16 days, then stopped",20 days
same,time until psoriasis came back after stopping the regimen,psoriasis skin lesions; FIG. 5 fourth patient,20 to 25 days
same,side effects during treatment,"psoriasis skin lesions; FIG. 5 fourth patient, treatment for long period of time",no side effects were noted
same,pEC50,GPR-109a receptor,~2.82
CCC(=O)O [propionate],effect on IL-6,IL-6,inhibit IL-6
CCCC(=O)[O-].[Na+] [sodium butyrate],effect on ileum inflammatory cytokines,[1],modulated the ileum inflammatory cytokines
